Test results from ChEMBL document CHEMBL3397036, “Novel tail and head group prostamide probes” (Bioorg Med Chem Lett, 2015).
Active and inactive are the calls of the source. No cut-off for these calls is given here.

Key:
[1] = target: T1, Prostaglandin E2 receptor EP3 subtype (Homo sapiens) (UniProt P43115); experiment: Activity at recombinant EP3 receptor (unknown origin) expressed in CHO cells co-expressing Gi protein at 100 nM by electrical cell substrate impedance sensing system; assay type: cell-based
T1 sequence (whole entry): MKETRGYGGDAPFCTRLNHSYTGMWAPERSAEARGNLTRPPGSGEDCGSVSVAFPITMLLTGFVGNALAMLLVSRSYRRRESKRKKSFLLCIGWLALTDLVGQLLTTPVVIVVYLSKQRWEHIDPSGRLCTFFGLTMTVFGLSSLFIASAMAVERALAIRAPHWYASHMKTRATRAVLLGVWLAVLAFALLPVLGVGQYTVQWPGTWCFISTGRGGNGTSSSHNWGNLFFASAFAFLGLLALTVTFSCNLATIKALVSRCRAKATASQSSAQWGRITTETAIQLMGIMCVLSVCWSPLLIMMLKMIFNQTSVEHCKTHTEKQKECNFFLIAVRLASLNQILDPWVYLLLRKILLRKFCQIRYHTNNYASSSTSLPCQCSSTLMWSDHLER

[2] = target: Prostaglandin E2 receptor EP4 subtype (Homo sapiens) (UniProt P35408); experiment: Activity at recombinant EP4 receptor (unknown origin) expressed in CHO cells co-expressing Gs protein at 100 nM by electrical cell substrate impedance sensing system; assay type: cell-based
Prostaglandin E2 receptor EP4 subtype (Homo sapiens), sequence (P35408 whole entry): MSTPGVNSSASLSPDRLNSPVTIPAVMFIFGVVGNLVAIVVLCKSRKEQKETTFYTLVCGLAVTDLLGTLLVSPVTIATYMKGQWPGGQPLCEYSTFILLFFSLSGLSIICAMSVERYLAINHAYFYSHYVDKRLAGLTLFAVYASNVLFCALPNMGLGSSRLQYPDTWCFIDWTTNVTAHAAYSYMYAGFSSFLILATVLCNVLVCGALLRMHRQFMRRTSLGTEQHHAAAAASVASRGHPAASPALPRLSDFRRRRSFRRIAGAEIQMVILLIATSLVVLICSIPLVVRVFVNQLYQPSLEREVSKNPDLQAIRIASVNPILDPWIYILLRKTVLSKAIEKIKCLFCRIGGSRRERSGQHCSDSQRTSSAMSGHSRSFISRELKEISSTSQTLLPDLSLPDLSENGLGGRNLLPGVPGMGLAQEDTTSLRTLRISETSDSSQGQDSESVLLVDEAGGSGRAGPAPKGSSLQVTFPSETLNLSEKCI

[3] = target: T2, Prostaglandin E2 receptor EP1 subtype (Homo sapiens) (UniProt P34995); experiment: Activity at recombinant EP1 receptor (unknown origin) expressed in CHO cells co-expressing Gq protein at 100 nM by electrical cell substrate impedance sensing system; assay type: cell-based
T2 sequence (whole entry): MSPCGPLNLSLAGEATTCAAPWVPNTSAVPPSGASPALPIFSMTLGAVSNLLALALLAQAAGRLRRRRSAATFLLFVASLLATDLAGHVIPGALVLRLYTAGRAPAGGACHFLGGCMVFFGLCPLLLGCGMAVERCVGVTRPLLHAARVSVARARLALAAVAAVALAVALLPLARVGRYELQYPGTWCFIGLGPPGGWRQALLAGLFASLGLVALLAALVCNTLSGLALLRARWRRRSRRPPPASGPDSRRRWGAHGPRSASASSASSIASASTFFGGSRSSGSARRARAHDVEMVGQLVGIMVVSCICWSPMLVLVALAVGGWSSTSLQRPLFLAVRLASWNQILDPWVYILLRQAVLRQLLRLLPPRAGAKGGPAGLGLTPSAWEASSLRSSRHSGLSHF

[4] = target: Cannabinoid receptor 2 (Mus musculus, UniProt P47936); experiment: Displacement of [3H]CP-55,940 from mouse CB2 receptor expressed in HEK293 cells; assay type: cell-based
Cannabinoid receptor 2 (Mus musculus, UniProt P47936), sequence (P47936 whole entry): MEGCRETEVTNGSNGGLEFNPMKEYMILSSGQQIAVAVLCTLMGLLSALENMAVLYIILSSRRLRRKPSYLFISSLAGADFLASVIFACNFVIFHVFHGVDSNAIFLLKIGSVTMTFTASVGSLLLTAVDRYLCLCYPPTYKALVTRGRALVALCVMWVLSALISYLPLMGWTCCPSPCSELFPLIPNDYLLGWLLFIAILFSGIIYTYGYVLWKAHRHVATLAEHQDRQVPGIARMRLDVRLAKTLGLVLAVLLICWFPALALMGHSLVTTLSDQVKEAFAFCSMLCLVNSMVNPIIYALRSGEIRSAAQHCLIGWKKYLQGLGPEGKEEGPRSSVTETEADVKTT

[5] = target: T3, Monoglyceride lipase (Homo sapiens, UniProt Q99685); experiment: Inhibition of human MGL
T3 sequence (Q99685 whole entry): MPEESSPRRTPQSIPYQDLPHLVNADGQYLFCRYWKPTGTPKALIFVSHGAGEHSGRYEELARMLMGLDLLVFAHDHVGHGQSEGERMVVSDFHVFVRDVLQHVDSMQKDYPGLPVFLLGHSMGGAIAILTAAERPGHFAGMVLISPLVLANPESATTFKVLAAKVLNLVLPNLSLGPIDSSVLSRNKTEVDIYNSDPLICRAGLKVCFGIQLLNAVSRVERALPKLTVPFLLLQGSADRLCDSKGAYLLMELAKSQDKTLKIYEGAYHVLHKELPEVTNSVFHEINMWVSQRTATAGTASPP

[6] = target: T4, Cannabinoid receptor 1 (Rattus norvegicus, UniProt P20272); experiment: Displacement of [3H]CP-55,940 from CB1 receptor in rat brain homogenates in absence of phenylmethanesulfonyl fluoride; assay type: tissue-based
T4 sequence (P20272 whole entry): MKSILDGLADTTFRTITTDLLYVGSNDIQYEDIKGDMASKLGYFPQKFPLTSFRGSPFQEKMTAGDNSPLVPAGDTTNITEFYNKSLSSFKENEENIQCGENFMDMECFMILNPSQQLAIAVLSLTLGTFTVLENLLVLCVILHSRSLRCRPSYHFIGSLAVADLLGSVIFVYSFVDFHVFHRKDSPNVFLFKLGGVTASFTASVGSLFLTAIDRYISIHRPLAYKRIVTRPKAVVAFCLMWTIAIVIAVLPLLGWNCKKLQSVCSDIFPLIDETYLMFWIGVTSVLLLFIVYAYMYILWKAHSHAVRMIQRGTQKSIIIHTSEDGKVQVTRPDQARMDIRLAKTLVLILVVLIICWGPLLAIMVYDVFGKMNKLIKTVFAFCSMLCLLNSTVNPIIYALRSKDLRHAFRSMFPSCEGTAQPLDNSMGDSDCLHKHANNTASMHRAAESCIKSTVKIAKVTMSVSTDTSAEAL

[7] = target: T4, Cannabinoid receptor 1; experiment: Displacement of [3H]CP-55,940 from CB1 receptor in rat brain homogenates in presence of phenylmethanesulfonyl fluoride; assay type: tissue-based
[8] = target: T5, Fatty-acid amide hydrolase 1 (Homo sapiens, UniProt O00519); experiment: Inhibition of human FAAH
T5 sequence (O00519 whole entry): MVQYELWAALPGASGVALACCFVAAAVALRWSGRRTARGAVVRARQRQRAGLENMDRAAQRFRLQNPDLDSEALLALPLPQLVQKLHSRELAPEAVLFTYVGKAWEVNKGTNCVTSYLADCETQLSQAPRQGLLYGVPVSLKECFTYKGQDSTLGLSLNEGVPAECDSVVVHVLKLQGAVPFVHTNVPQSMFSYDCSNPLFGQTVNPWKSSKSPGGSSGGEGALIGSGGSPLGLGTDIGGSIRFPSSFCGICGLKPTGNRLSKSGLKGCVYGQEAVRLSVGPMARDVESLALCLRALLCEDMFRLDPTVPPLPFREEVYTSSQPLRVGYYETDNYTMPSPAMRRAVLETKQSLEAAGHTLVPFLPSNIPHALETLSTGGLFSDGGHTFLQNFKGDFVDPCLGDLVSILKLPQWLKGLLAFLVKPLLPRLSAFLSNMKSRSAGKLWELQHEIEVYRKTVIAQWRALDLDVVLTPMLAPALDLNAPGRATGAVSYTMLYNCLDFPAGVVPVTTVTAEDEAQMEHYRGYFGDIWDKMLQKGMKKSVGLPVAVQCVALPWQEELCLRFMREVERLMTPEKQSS

[9] = target: Cannabinoid receptor 2 (Homo sapiens, UniProt P34972); experiment: Displacement of [3H]CP-55,940 from human CB2 receptor expressed in HEK293 cells; assay type: cell-based
Cannabinoid receptor 2 (Homo sapiens, UniProt P34972), sequence (P34972 whole entry): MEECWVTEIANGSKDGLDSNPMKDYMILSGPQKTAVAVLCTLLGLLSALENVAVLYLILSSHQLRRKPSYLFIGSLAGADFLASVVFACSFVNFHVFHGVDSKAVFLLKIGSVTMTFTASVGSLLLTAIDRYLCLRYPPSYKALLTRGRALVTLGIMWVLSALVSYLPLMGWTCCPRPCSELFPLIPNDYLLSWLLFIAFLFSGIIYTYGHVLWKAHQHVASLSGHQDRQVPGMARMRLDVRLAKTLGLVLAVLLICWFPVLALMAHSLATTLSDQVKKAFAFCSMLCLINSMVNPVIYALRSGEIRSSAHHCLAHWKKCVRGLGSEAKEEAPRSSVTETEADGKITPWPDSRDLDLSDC

[10] = target: T6, N-acylethanolamine-hydrolyzing acid amidase (Homo sapiens, UniProt Q02083); experiment: Inhibition of human NAAA
T6 sequence (Q02083 whole entry): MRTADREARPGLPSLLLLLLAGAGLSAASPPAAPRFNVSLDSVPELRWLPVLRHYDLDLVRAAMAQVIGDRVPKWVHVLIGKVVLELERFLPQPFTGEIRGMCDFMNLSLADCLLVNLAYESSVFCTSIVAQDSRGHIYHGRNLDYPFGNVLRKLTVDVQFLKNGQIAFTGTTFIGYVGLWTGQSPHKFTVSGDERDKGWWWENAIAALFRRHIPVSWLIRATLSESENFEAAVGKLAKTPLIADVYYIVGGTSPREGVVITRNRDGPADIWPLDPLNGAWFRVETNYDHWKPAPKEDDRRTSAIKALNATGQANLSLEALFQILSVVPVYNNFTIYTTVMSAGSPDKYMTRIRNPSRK

[11] = target: T7, Fatty-acid amide hydrolase 1 (Rattus norvegicus, UniProt P97612); experiment: Inhibition of rat FAAH
T7 sequence (P97612 whole entry): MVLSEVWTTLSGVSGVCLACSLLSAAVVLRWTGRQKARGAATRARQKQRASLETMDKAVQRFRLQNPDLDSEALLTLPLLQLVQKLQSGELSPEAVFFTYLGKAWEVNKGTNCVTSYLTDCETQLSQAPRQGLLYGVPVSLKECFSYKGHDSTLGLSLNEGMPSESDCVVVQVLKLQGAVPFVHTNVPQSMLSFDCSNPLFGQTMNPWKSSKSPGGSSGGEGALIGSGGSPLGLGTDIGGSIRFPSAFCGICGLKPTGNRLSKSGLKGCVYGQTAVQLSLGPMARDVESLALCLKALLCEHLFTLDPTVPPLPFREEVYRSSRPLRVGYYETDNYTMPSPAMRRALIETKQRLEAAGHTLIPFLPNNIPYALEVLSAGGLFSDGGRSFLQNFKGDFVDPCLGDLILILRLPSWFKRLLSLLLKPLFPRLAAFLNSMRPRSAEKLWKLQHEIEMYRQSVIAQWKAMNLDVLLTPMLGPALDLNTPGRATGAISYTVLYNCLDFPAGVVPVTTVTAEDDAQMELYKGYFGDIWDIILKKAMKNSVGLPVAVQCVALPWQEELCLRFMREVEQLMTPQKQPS

Structure (SMILES) | Activity [1] | Activity [2] | Activity [3] | Ki [4] [nM] | IC50 [5] [nM] | Ki [6] [nM] | Ki [7] [nM] | IC50 [8] [nM] | Ki [9] [nM] | IC50 [10] [nM] | IC50 [11] [nM]
CCCCC[C@H](O)/C=C/[C@H]1[C@H](O)CC(=O)[C@@H]1C/C=C\CCCC(=O)O | Active | Active | Active | – | – | – | – | – | – | – | –
O=C(CCC/C=C\C[C@H]1C(=O)C[C@@H](O)[C@@H]1/C=C/[C@@H](O)CCc1ccc(I)cc1)NCCO | – | – | – | > 1000 | > 100000 | 830 | 620 | > 100000 | > 1000 | > 100000 | > 100000
O=C(CCC/C=C\C[C@H]1C(=O)C[C@@H](O)[C@@H]1/C=C/[C@H](O)CCc1ccccc1)NCCO | – | – | – | > 1000 | > 100000 | 740 | 740 | > 100000 | > 1000 | > 100000 | > 100000
C[C@H](CO)NC(=O)CCC/C=C\C[C@H]1C(=O)C[C@@H](O)[C@@H]1/C=C/[C@@H](O)CCc1ccccc1 | – | – | – | > 1000 | > 100000 | 770 | 730 | > 100000 | > 1000 | > 100000 | > 100000
CCCCC[C@H](O)/C=C/[C@H]1[C@H](O)CC(=O)[C@@H]1C/C=C\CCCC(=O)NCCO | inactive | inactive | inactive | – | – | – | – | – | – | – | –
C[C@@H](CO)NC(=O)CCC/C=C\C[C@H]1C(=O)C[C@@H](O)[C@@H]1/C=C/[C@@H](O)CCc1ccccc1 | – | – | – | > 1000 | > 100000 | > 1000 | 950 | > 100000 | > 1000 | > 100000 | > 100000
O=C(CCC/C=C\C[C@H]1C(=O)C[C@@H](O)[C@@H]1/C=C/[C@@H](O)CCc1ccccc1)NCCCO | – | – | – | > 1000 | > 100000 | > 1000 | > 1000 | > 100000 | > 1000 | > 100000 | > 100000
O=C(CCC/C=C\C[C@H]1C(=O)C[C@@H](O)[C@@H]1/C=C/[C@@H](O)CCc1ccccc1)NCCO | inactive | inactive | inactive | > 1000 | 100000 | > 1000 | > 1000 | > 100000 | > 1000 | > 100000 | > 100000
